Experiment [1] has as its target IL-17A(FLAG-Tagged): IL-17RA(His-Tagged) binding (Homo sapiens, UniProt Q16552, K93Q). The experiment can be described thus: IL-17A(FLAG-tagged):IL-17RA(His-tagged) binding disruption Eu-HTRF assay, Protocol 2. To be noted: FLAG-IL-17A 1 nM; average if tested more than once. The gist of the method: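 FLAG-tagged IL-17A (1 nM final) was preincubated with compound (2-fold serial dilutions, 22 points) for 1 h at rt in PBS + 0.01% Triton X-100. 10×His-IL-17RA, Eu-anti-FLAG and D2-anti-His in buffer containing KF were then added for 2 h at rt. IC50 came from the 665/615 nm HTRF ratio fitted to a one-site competition model.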
(In general: Time-resolved FRET reads energy transfer from a long-lived donor to a nearby acceptor.)

Experiment [2] has as its system IL-17A-induced G-CSF production in human normal keratinocyte (NHK). Description: NHK assay: IL-17A-induced G-CSF production in normal human keratinocytes. Format: cell-based. Conditions: Homo sapiens, Keratinocyte, 24 h, IL-17A 5 ng/mL, G-CSF by HTRF, average if tested more than once. The gist of the method: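 Compound titrations are first mixed with recombinant human IL-17A for 1 h at room temperature. The mixture goes onto adult normal human keratinocytes (final IL-17A 5 ng/mL, 5% FBS, 0.2% DMSO) for 24 h at 37 °C. Secreted G-CSF is then measured by HTRF and IC50 fitted.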

pIC50: −log10 of the molar value.

Chain of UniProt Q16552 (Q16552 with tags, fused parts or gaps K93Q): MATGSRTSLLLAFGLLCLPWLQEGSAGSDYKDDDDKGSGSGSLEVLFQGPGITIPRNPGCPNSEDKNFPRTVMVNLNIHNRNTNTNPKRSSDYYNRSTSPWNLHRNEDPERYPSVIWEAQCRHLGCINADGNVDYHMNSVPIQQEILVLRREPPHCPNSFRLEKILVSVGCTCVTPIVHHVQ

As a reminder, the pIC50 is the IC50 on a negative log10 scale, so that one unit is a factor of ten. The low end stands for a high IC50, the high end for a low IC50. Turning to `[2H]C1([2H])NC(=O)N([C@H](COC)c2cnn3cc([C@H](CCC(C)(C)C(F)(F)F)NC(=O)c4nonc4C4CC4)nc3c2)C([2H])([2H])C1(F)F` [Example 80, 4-Cyclopropyl-N—((S)-1-(7-((S)-1-(5,5-difluoro-2-oxotetrahydropyrimidin-1(2H)-yl-4,4,6,6-d4)-2-methoxyethyl)imidazo[1,2-b]pyridazin-2-yl)-5,5,5-trifluoro-4,4-dimethylpentyl)-1,2,5-oxadiazole-3-carboxamide], the pIC50 in experiment [1] and in experiment [2] was over 7.30 throughout.

For `[2H]C1([2H])NC(=O)N([C@H](COC)c2cnn3cc([C@H](CCC(C)(C)C(F)(F)F)NC(=O)c4nonc4C(F)F)nc3c2)C([2H])([2H])C1(F)F` [Example 81, N—((S)-1-(7-((S)-1-(5,5-Difluoro-2-oxotetrahydropyrimidin-1(2H)-yl-4,4,6,6-d4)-2-methoxyethyl)imidazo[1,2-b]pyridazin-2-yl)-5,5,5-trifluoro-4,4-dimethylpentyl)-4-(difluoromethyl)-1,2,5-oxadiazole-3-carboxamide], the pIC50 in experiment [1] and in experiment [2] was over 7.30 in each case.

As for `[2H]C1([2H])NC(=O)N([C@H](COC2CC2)c2cnn3cc([C@@H](NC(=O)c4nonc4C(F)F)C4CCC(F)(F)CC4)nc3c2)C([2H])([2H])C1(F)F` [Example 82, N—((S)-(7-((S)-2-Cyclopropoxy-1-(5,5-difluoro-2-oxotetrahydropyrimidin-1(2H)-yl-4,4,6,6-d4)ethyl)imidazo[1,2-b]pyridazin-2-yl)(4,4-difluorocyclohexyl)methyl)-4-(difluoromethyl)-1,2,5-oxadiazole-3-carboxamide], the negative-log IC50 (pIC50) in experiment [1] and in experiment [2] was over 7.30 throughout.

Regarding `[2H]C1([2H])NC(=O)N([C@H](COC)c2cnn3cc([C@H](CCC(C)(C)C(F)(F)F)NC(=O)c4nonc4C(F)(F)F)nc3c2)C([2H])([2H])C1(F)F` [Example 83, N—((S)-1-(7-((S)-1-(5,5-Difluoro-2-oxotetrahydropyrimidin-1(2H)-yl-4,4,6,6-d4)-2-methoxyethyl)imidazo[1,2-b]pyridazin-2-yl)-5,5,5-trifluoro-4,4-dimethylpentyl)-4-(trifluoromethyl)-1,2,5-oxadiazole-3-carboxamide], the pIC50 in experiment [1] and in experiment [2] was over 7.30 in each case.

As for `COC[C@H](c1cnn2cc([C@@H](NC(=O)c3nonc3C(F)(F)F)C3CCC(F)(F)CC3)nc2c1)N1CC(F)(F)CNC1=O` [Example 84, N—((S)-(7-((S)-1-(5,5-Difluoro-2-oxotetrahydropyrimidin-1(2H)-yl)-2-methoxyethyl)imidazo[1,2-b]pyridazin-2-yl)(4,4-difluorocyclohexyl)methyl)-4-(trifluoromethyl)-1,2,5-oxadiazole-3-carboxamide], the pIC50 in experiment [1] and in experiment [2] was over 7.30 throughout.

With `O=C(N[C@H](c1cn2ncc([C@@H](C(F)F)N3CC(F)(F)CNC3=O)cc2n1)C1CCC(F)(F)CC1)c1nonc1C1CC1` [Example 89, 4-Cyclopropyl-N—((S)-(7-((S)-1-(5,5-difluoro-2-oxotetrahydropyrimidin-1(2H)-yl)-2,2-difluoroethyl)imidazo[1,2-b]pyridazin-2-yl)(4,4-difluorocyclohexyl)methyl)-1,2,5-oxadiazole-3-carboxamide], the negative-log IC50 (pIC50) in experiment [1] and in experiment [2] was over 7.30 throughout.

On to `COC[C@H](c1cnn2cc([C@@H](NC(=O)c3nonc3C)C(C3CC3)C3CC3)nc2c1)N1CC(F)(F)CNC1=O` [Example 102, N—((S)-2,2-Dicyclopropyl-1-(7-((S)-1-(5,5-difluoro-2-oxotetrahydropyrimidin-1(2H)-yl)-2-methoxyethyl)imidazo[1,2-b]pyridazin-2-yl)ethyl)-4-methyl-1,2,5-oxadiazole-3-carboxamide], for which the pIC50 in experiment [1] and in experiment [2] was over 7.30 throughout.

Consider `COC[C@H](c1cnn2cc([C@@H](NC(=O)c3nonc3C3CC3)C(C3CC3)C3CC3)nc2c1)N1CC(F)(F)CNC1=O` [Example 103, 4-Cyclopropyl-N—((S)-2,2-dicyclopropyl-1-(7-((S)-1-(5,5-difluoro-2-oxotetrahydropyrimidin-1(2H)-yl)-2-methoxyethyl)imidazo[1,2-b]pyridazin-2-yl)ethyl)-1,2,5-oxadiazole-3-carboxamide], for which the pIC50 in experiment [1] and in experiment [2] was over 7.30 in each case.

For the molecule `COC[C@H](c1cnn2cc([C@@H](NC(=O)c3nocc3CC(F)(F)F)C3CCC(F)(F)CC3)nc2c1)N1CC(F)(F)CNC1=O` [Example 106, N—((S)-(7-((S)-1-(5,5-Difluoro-2-oxotetrahydropyrimidin-1(2H)-yl)-2-methoxyethyl)imidazo[1,2-b]pyridazin-2-yl)(4,4-difluorocyclohexyl)methyl)-4-(2,2,2-trifluoroethyl)isoxazole-3-carboxamide], the pIC50 in experiment [1] and in experiment [2] was over 7.30 throughout.

As to `[2H]C1([2H])NC(=O)N([C@H](COC2CC2)c2cnn3cc([C@@H](NC(=O)c4nocc4CC(F)(F)F)C4CCC(F)(F)CC4)nc3c2)C([2H])([2H])C1(F)F` [Example 107, N—((S)-(7-((S)-2-Cyclopropoxy-1-(5,5-difluoro-2-oxotetrahydropyrimidin-1(2H)-yl-4,4,6,6-d4)ethyl)imidazo[1,2-b]pyridazin-2-yl)(4,4-difluorocyclohexyl)methyl)-4-(2,2,2-trifluoroethyl)isoxazole-3-carboxamide], the pIC50 in experiment [1] and in experiment [2] was over 7.30 throughout.

As for `COC[C@H](c1cnn2cc([C@@H](NC(=O)c3nonc3OC)C3CCC(F)(F)CC3)nc2c1)N1CC(F)(F)CNC1=O` [Example 108, N—((S)-(7-((S)-1-(5,5-Difluoro-2-oxotetrahydropyrimidin-1(2H)-yl)-2-methoxyethyl)imidazo[1,2-b]pyridazin-2-yl)(4,4-difluorocyclohexyl)methyl)-4-methoxy-1,2,5-oxadiazole-3-carboxamide], the pIC50 in experiment [1] and in experiment [2] was over 7.30 in each case.

Consider `COC[C@H](c1cnn2cc([C@H](CCC(C)(C)C(F)(F)F)NC(=O)c3nonc3OC)nc2c1)N1CC(F)(F)CNC1=O` [Example 109, N—((S)-1-(7-((S)-1-(5,5-Difluoro-2-oxotetrahydropyrimidin-1(2H)-yl)-2-methoxyethyl)imidazo[1,2-b]pyridazin-2-yl)-5,5,5-trifluoro-4,4-dimethylpentyl)-4-methoxy-1,2,5-oxadiazole-3-carboxamide], for which the pIC50 in experiment [1] and in experiment [2] was over 7.30 throughout.

For the molecule `COC[C@H](c1cnn2cc([C@H](CCC(C)(C)C(F)(F)F)NC(=O)c3nonc3C(F)F)nc2c1)N1CC(F)(F)CNC1=O` [Example 110, N—((S)-1-(7-((S)-1-(5,5-Difluoro-2-oxotetrahydropyrimidin-1(2H)-yl)-2-methoxyethyl)imidazo[1,2-b]pyridazin-2-yl)-5,5,5-trifluoro-4,4-dimethylpentyl)-4-(difluoromethyl)-1,2,5-oxadiazole-3-carboxamide], the pIC50 in experiment [1] and in experiment [2] was over 7.30 throughout.

For the molecule `COC[C@H](c1cnn2cc([C@H](CCC(C)(C)C(F)(F)F)NC(=O)c3ncnn3C(C)C)nc2c1)N1CC(F)(F)CNC1=O` [Example 111, N—((S)-1-(7-((S)-1-(5,5-Difluoro-2-oxotetrahydropyrimidin-1(2H)-yl)-2-methoxyethyl)imidazo[1,2-b]pyridazin-2-yl)-5,5,5-trifluoro-4,4-dimethylpentyl)-1-isopropyl-1H-1,2,4-triazole-5-carboxamide], the pIC50 in experiment [1] and in experiment [2] was over 7.30 in each case.

As for `[2H]C1([2H])NC(=O)N([C@H](COC)c2cnn3cc([C@H](CCC(C)(C)C(F)(F)F)NC(=O)c4ncnn4C(C)C)nc3c2)C([2H])([2H])C1(F)F` [Example 112, N—((S)-1-(7-((S)-1-(5,5-Difluoro-2-oxotetrahydropyrimidin-1(2H)-yl-4,4,6,6-d4)-2-methoxyethyl)imidazo[1,2-b]pyridazin-2-yl)-5,5,5-trifluoro-4,4-dimethylpentyl)-1-isopropyl-1H-1,2,4-triazole-5-carboxamide], the pIC50 was over 7.30 in experiment [1] and 7.00 to 7.30 in experiment [2].

On to `COc1nonc1C(=O)N[C@@H](CCC(C)(C)C(F)(F)F)c1cn2ncc(CN3CC(F)(F)CNC3=O)cc2n1` [Example 113, (S)—N-(1-(7-((5,5-Difluoro-2-oxotetrahydropyrimidin-1(2H)-yl)methyl)imidazo[1,2-b]pyridazin-2-yl)-5,5,5-trifluoro-4,4-dimethylpentyl)-4-methoxy-1,2,5-oxadiazole-3-carboxamide], for which the pIC50 in experiment [1] and in experiment [2] was over 7.30 each time.

On to `CC(C)(CC[C@H](NC(=O)c1nonc1C1CC1)c1cn2ncc(CN3CC(F)(F)CNC3=O)cc2n1)C(F)(F)F` [Example 114, (S)-4-Cyclopropyl-N-(1-(7-((5,5-difluoro-2-oxotetrahydropyrimidin-1(2H)-yl)methyl)imidazo[1,2-b]pyridazin-2-yl)-5,5,5-trifluoro-4,4-dimethylpentyl)-1,2,5-oxadiazole-3-carboxamide], for which the negative logarithm of the IC50 (pIC50) in experiment [1] and in experiment [2] was over 7.30 each time.

With `Cc1nonc1C(=O)N[C@@H](CCC(C)(C)C(F)(F)F)c1cn2ncc(CN3CC(F)(F)CNC3=O)cc2n1` [Example 115, (S)—N-(1-(7-((5,5-Difluoro-2-oxotetrahydropyrimidin-1(2H)-yl)methyl)imidazo[1,2-b]pyridazin-2-yl)-5,5,5-trifluoro-4,4-dimethylpentyl)-4-methyl-1,2,5-oxadiazole-3-carboxamide], the figures for the negative logarithm of the IC50 (pIC50) in experiment [1] and in experiment [2] were over 7.30 and 7.00 to 7.30, respectively.

For the origin of these results see US12173007B2, “Imidazopyridazine IL-17 inhibitor compounds” (Janssen Pharmaceutica NV, priority 2021, dated 2024).
